From ChEMBL document CHEMBL3885881, “DrugMatrix”

Organism: Rattus norvegicus
Assay: DrugMatrix - Regimen: Daily Repeat
Assay type: toxicity, organism-based, Sprague-Dawley
Parameters: regimen Daily Repeat, gender Male, age 6-8 weeks
Details: in vivo, po, route oral GAVAGE, […]; for ABSOLUTE BASOPHIL / ABSOLUTE EOSINOPHIL / ABSOLUTE LYMPHOCYTE / ABSOLUTE MONOCYTE / ABSOLUTE SEGMENTED NEUTROPHIL / BASOPHIL / EOSINOPHIL / ERYTHROCYTE COUNT / HEMATOCRIT / HEMOGLOBIN / LEUKOCYTE COUNT / LYMPHOCYTE / MEAN CORPUSCULAR HEMOGLOBIN / MEAN CORPUSCULAR HEMOGLOBIN CONCENTRATION / MEAN CORPUSCULAR VOLUME / MONOCYTE / NEUTROPHIL / NUCLEATED RED BLOOD CELLS / PLATELET COUNT: tissue Blood; for ALANINE AMINOTRANSFERASE / ALBUMIN / ALKALINE PHOSPHATASE / ASPARTATE AMINOTRANSFERASE / BLOOD UREA NITROGEN / CARBON DIOXIDE / CHLORIDE / CHOLESTEROL / CREATINE PHOSPHOKINASE / CREATININE / GLUCOSE / LACTATE DEHYDROGENASE / LIPASE / PHOSPHORUS / POTASSIUM / SODIUM / TOTAL BILIRUBIN / TOTAL PROTEIN / URIC ACID: tissue Plasma
[1] = 3 mg/kg, 72 h, dose level Low, time 3 day
[2] = 3 mg/kg, 120 h, dose level Low, time 5 day
[3] = 250 mg/kg, 72 h, dose level High, time 3 day
[4] = 250 mg/kg, 120 h, dose level High, time 5 day

## N#Cc1ccc(C(c2ccc(C#N)cc2)n2cncn2)cc1 [LETROZOLE]
[1]
  ABSOLUTE BASOPHIL: 0 CELLS/uL
  ABSOLUTE EOSINOPHIL: 184 CELLS/uL
  ABSOLUTE LYMPHOCYTE: 10672.33 CELLS/uL
  ABSOLUTE MONOCYTE: 0 CELLS/uL
  ABSOLUTE SEGMENTED NEUTROPHIL: 1877 CELLS/uL
  BASOPHIL: 0%
  EOSINOPHIL: 0.67%
  ERYTHROCYTE COUNT: 4.51 x10E6/uL
  HEMATOCRIT: 28.03%
  HEMOGLOBIN: 11.33 G/DL
  LEUKOCYTE COUNT: 12.73 x10E3/uL
  LYMPHOCYTE: 88.67%
  MEAN CORPUSCULAR HEMOGLOBIN: 25.07 pg
  MEAN CORPUSCULAR HEMOGLOBIN CONCENTRATION: 40.37 G/DL
  MEAN CORPUSCULAR VOLUME: 62.1 fL
  MONOCYTE: 0%
  NEUTROPHIL: 10.67%
  NUCLEATED RED BLOOD CELLS: 0 /100WBC
  PLATELET COUNT: 541.33 x10E3/uL
  ALANINE AMINOTRANSFERASE: 85.67 u/L
  ALBUMIN: 4.07 G/DL
  ALKALINE PHOSPHATASE: 351.67 u/L
  ASPARTATE AMINOTRANSFERASE: 114.67 u/L
  BLOOD UREA NITROGEN: 15 mg/dL
  CARBON DIOXIDE: 26.67 mmol/L
  CHLORIDE: 105 MEQ/L
  CHOLESTEROL: 72.33 mg/dL
  CREATINE PHOSPHOKINASE: 577.67 u/L
  CREATININE: 0.17 mg/dL
  GLUCOSE: 196.67 mg/dL
  LACTATE DEHYDROGENASE: 171.67 u/L
  LIPASE: 8.33 u/L
  PHOSPHORUS: 13.4 mg/dL
  POTASSIUM: 5.91 MEQ/L
  SODIUM: 144 MEQ/L
  TOTAL BILIRUBIN: 0.2 mg/dL
  TOTAL PROTEIN: 5.4 G/DL
  URIC ACID: 1.37 mg/dL
[2]
  ABSOLUTE BASOPHIL: 0 CELLS/uL
  ABSOLUTE EOSINOPHIL: 0 CELLS/uL
  ABSOLUTE LYMPHOCYTE: 13516.33 CELLS/uL
  ABSOLUTE MONOCYTE: 50.67 CELLS/uL
  ABSOLUTE SEGMENTED NEUTROPHIL: 1033 CELLS/uL
  BASOPHIL: 0%
  EOSINOPHIL: 0%
  ERYTHROCYTE COUNT: 5.59 x10E6/uL
  HEMATOCRIT: 35.97%
  HEMOGLOBIN: 14.1 G/DL
  LEUKOCYTE COUNT: 14.6 x10E3/uL
  LYMPHOCYTE: 92.67%
  MEAN CORPUSCULAR HEMOGLOBIN: 25.23 pg
  MEAN CORPUSCULAR HEMOGLOBIN CONCENTRATION: 39.17 G/DL
  MEAN CORPUSCULAR VOLUME: 64.33 fL
  MONOCYTE: 0.33%
  NEUTROPHIL: 7%
  NUCLEATED RED BLOOD CELLS: 0 /100WBC
  PLATELET COUNT: 1165 x10E3/uL
  ALANINE AMINOTRANSFERASE: 55 u/L
  ALBUMIN: 4.23 G/DL
  ALKALINE PHOSPHATASE: 407 u/L
  ASPARTATE AMINOTRANSFERASE: 79.33 u/L
  BLOOD UREA NITROGEN: 18 mg/dL
  CARBON DIOXIDE: 27.67 mmol/L
  CHLORIDE: 103 MEQ/L
  CHOLESTEROL: 69.33 mg/dL
  CREATINE PHOSPHOKINASE: 252.67 u/L
  CREATININE: 0.22 mg/dL
  GLUCOSE: 176 mg/dL
  LACTATE DEHYDROGENASE: 155.33 u/L
  LIPASE: 11.33 u/L
  PHOSPHORUS: 11.3 mg/dL
  POTASSIUM: 6.08 MEQ/L
  SODIUM: 143.2 MEQ/L
  TOTAL BILIRUBIN: 0.2 mg/dL
  TOTAL PROTEIN: 5.8 G/DL
  URIC ACID: 1.3 mg/dL
[3]
  ABSOLUTE BASOPHIL: 0 CELLS/uL
  ABSOLUTE EOSINOPHIL: 0 CELLS/uL
  ABSOLUTE LYMPHOCYTE: 16113.33 CELLS/uL
  ABSOLUTE MONOCYTE: 104 CELLS/uL
  ABSOLUTE SEGMENTED NEUTROPHIL: 1216 CELLS/uL
  BASOPHIL: 0%
  EOSINOPHIL: 0%
  ERYTHROCYTE COUNT: 5.67 x10E6/uL
  HEMATOCRIT: 35.07%
  HEMOGLOBIN: 14.07 G/DL
  LEUKOCYTE COUNT: 17.43 x10E3/uL
  LYMPHOCYTE: 92%
  MEAN CORPUSCULAR HEMOGLOBIN: 24.8 pg
  MEAN CORPUSCULAR HEMOGLOBIN CONCENTRATION: 40.1 G/DL
  MEAN CORPUSCULAR VOLUME: 61.83 fL
  MONOCYTE: 0.67%
  NEUTROPHIL: 7.33%
  NUCLEATED RED BLOOD CELLS: 0 /100WBC
  PLATELET COUNT: 1266.33 x10E3/uL
  ALANINE AMINOTRANSFERASE: 69 u/L
  ALBUMIN: 3.97 G/DL
  ALKALINE PHOSPHATASE: 487 u/L
  ASPARTATE AMINOTRANSFERASE: 117 u/L
  BLOOD UREA NITROGEN: 13 mg/dL
  CARBON DIOXIDE: 29 mmol/L
  CHLORIDE: 102.33 MEQ/L
  CHOLESTEROL: 68.33 mg/dL
  CREATINE PHOSPHOKINASE: 365.33 u/L
  CREATININE: 0.24 mg/dL
  GLUCOSE: 140.67 mg/dL
  LACTATE DEHYDROGENASE: 544.67 u/L
  LIPASE: 12.33 u/L
  PHOSPHORUS: 11.13 mg/dL
  POTASSIUM: 5.99 MEQ/L
  SODIUM: 142.27 MEQ/L
  TOTAL BILIRUBIN: 0.23 mg/dL
  TOTAL PROTEIN: 5.47 G/DL
  URIC ACID: 1.4 mg/dL
[4]
  ABSOLUTE BASOPHIL: 0 CELLS/uL
  ABSOLUTE EOSINOPHIL: 0 CELLS/uL
  ABSOLUTE LYMPHOCYTE: 11610.33 CELLS/uL
  ABSOLUTE MONOCYTE: 237.67 CELLS/uL
  ABSOLUTE SEGMENTED NEUTROPHIL: 1485.33 CELLS/uL
  BASOPHIL: 0%
  EOSINOPHIL: 0%
  ERYTHROCYTE COUNT: 6.3 x10E6/uL
  HEMATOCRIT: 38.7%
  HEMOGLOBIN: 15.17 G/DL
  LEUKOCYTE COUNT: 13.33 x10E3/uL
  LYMPHOCYTE: 87.33%
  MEAN CORPUSCULAR HEMOGLOBIN: 24.13 pg
  MEAN CORPUSCULAR HEMOGLOBIN CONCENTRATION: 39.23 G/DL
  MEAN CORPUSCULAR VOLUME: 61.5 fL
  MONOCYTE: 1.67%
  NEUTROPHIL: 11%
  NUCLEATED RED BLOOD CELLS: 0 /100WBC
  PLATELET COUNT: 1093.67 x10E3/uL
  ALANINE AMINOTRANSFERASE: 36.67 u/L
  ALBUMIN: 4.27 G/DL
  ALKALINE PHOSPHATASE: 295.33 u/L
  ASPARTATE AMINOTRANSFERASE: 110.67 u/L
  BLOOD UREA NITROGEN: 15.33 mg/dL
  CARBON DIOXIDE: 28.67 mmol/L
  CHLORIDE: 104.67 MEQ/L
  CHOLESTEROL: 55.67 mg/dL
  CREATINE PHOSPHOKINASE: 254 u/L
  CREATININE: 0.21 mg/dL
  GLUCOSE: 151.33 mg/dL
  LACTATE DEHYDROGENASE: 321.67 u/L
  LIPASE: 10.67 u/L
  PHOSPHORUS: 9.9 mg/dL
  POTASSIUM: 4.59 MEQ/L
  SODIUM: 146.27 MEQ/L
  TOTAL BILIRUBIN: 0.1 mg/dL
  TOTAL PROTEIN: 5.77 G/DL
  URIC ACID: 1.13 mg/dL
